Each compound was assayed against ATP-dependent translocase ABCB1 (Homo sapiens, UniProt P08183) (assay: Binding affinity to ABCB1 nucleotide binding domain 2).
ATP-dependent translocase ABCB1, sequence (P08183 whole entry, the tested form may be a part): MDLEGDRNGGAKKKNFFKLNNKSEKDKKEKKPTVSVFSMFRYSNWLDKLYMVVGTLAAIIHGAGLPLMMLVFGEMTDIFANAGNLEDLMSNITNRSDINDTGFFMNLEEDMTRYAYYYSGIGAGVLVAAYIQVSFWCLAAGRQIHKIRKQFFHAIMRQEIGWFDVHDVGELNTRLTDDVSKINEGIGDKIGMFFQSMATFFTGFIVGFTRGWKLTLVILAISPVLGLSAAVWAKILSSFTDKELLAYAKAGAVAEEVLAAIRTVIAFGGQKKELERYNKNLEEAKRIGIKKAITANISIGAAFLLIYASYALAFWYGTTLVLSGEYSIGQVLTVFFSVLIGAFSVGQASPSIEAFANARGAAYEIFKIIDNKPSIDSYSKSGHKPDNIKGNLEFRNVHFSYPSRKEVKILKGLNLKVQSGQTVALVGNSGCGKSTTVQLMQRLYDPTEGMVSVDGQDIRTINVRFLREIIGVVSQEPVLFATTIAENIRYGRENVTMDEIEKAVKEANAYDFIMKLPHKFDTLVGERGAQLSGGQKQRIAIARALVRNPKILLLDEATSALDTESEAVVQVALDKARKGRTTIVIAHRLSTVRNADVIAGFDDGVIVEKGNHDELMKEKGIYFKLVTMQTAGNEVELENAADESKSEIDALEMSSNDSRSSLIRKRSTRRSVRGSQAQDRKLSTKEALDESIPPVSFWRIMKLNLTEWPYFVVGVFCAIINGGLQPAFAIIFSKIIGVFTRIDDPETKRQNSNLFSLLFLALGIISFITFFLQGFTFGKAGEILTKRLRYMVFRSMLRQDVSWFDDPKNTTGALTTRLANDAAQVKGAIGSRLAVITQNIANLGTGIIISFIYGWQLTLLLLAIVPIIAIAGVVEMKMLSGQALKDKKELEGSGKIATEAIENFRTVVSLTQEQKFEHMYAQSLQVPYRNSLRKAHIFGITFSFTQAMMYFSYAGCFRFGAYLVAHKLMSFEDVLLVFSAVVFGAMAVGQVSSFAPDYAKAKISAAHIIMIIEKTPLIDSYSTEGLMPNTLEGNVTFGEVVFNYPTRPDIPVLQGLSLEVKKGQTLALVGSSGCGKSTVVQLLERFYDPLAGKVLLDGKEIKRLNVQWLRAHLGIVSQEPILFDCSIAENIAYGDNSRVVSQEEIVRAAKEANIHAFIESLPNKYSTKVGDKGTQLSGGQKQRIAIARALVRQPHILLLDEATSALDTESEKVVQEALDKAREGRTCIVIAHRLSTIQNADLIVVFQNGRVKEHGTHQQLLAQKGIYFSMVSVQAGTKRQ

Kd	Structure (SMILES)
34700 nM	O=c1cc(-c2ccccc2)oc2cc(O)ccc12 [7-HYDROXYFLAVONE]
10000 nM	O=c1c(O)c(-c2ccccc2)oc2ccccc12 [FLAVONOL]
1100 nM	O=c1c(O)c(-c2ccc(I)cc2)oc2cc(O)cc(O)c12
5890 nM	O=c1c(O)c(-c2ccccc2)oc2cc(O)cc(O)c12 [GALANGIN]
2190 nM	O=c1cc(-c2ccc(I)cc2)oc2cc(O)cc(O)c12
200 nM	C=CC(C)(C)c1c(O)cc(O)c2c(=O)cc(-c3ccccc3)oc12
8910 nM	O=c1cc(-c2ccccc2)oc2cc(O)cc(O)c12 [CHRYSIN]
8910 nM	COc1c(-c2ccccc2)oc2cc(O)cc(O)c2c1=O
33900 nM	O=c1cc(-c2ccccc2)oc2ccccc12 [FLAVONE]
302 nM	CC(C)=Cc1c(O)cc2oc(-c3ccccc3)cc(=O)c2c1O
6310 nM	O=c1cc(-c2ccc(F)c(F)c2)oc2cc(O)cc(O)c12
447 nM	C=CC(C)(C)c1c(O)cc(O)c2c(=O)c(O)c(-c3ccccc3)oc12
282 nM	CC(C)=Cc1c(O)cc(O)c2c(=O)cc(-c3ccccc3)oc12
44.7 nM	CC(C)=CCC/C(C)=C/c1c(O)cc2oc(-c3ccccc3)cc(=O)c2c1O
2000 nM	O=c1c(O)c(C(c2ccccc2)c2ccccc2)oc2cc(O)cc(O)c12
209 nM	CC(C)c1c(O)cc2oc(-c3ccccc3)cc(=O)c2c1O
3090 nM	Cc1c(O)cc2oc(-c3ccccc3)cc(=O)c2c1O
57.5 nM	CCCCCCCCc1ccc(-c2oc3cc(O)cc(O)c3c(=O)c2O)cc1
15.1 nM	CC(C)=Cc1c(O)c(C=C(C)C)c2oc(-c3ccccc3)cc(=O)c2c1O

Kd	Structure (SMILES)
26300 nM	O=c1c(-c2ccc(O)cc2)coc2cc(O)cc(O)c12 [GENISTEIN]
3980 nM	O=c1c(O)c(-c2ccc(Cl)cc2Cl)oc2cc(O)cc(O)c12
282 nM	CC(C)Oc1cc2oc(-c3ccccc3)cc(=O)c2c(O)c1C(C)C
200 nM	C=CC(C)(C)c1c(O)cc(O)c2c(=O)c(O)c(-c3ccc(OC)cc3)oc12
4470 nM	COc1ccc(-c2oc3cc(O)cc(O)c3c(=O)c2O)cc1 [KAEMPFERIDE]
25.1 nM	CC(C)=CCC/C(C)=C/c1c(O)cc(O)c2c(=O)cc(-c3ccccc3)oc12
339 nM	O=c1cc(-c2ccccc2)oc2cc(O)c(Cc3ccccc3)c(O)c12
33.1 nM	CC(C)Oc1c(C(C)C)c(O)c2c(=O)cc(-c3ccccc3)oc2c1C(C)C
6310 nM	COc1cc(O)c2c(=O)cc(-c3ccccc3)oc2c1 [TECHTOCHRYSIN]
209 nM	CC(C)=Cc1c(O)cc2oc(-c3ccccc3)c(O)c(=O)c2c1O
6760 nM	O=c1c(O)c(-c2ccc(F)cc2)oc2cc(O)cc(O)c12
708 nM	C=CC(C)(C)c1c(O)cc(O)c2c(=O)cc(-c3ccc(O)cc3)oc12
151 nM	C=CC(C)(C)c1c(OC)cc(O)c2c(=O)c(OC)c(-c3ccccc3)oc12
1000 nM	O=c1cc(-c2ccccc2)oc2c(Cc3ccccc3)c(O)cc(O)c12
1290 nM	COc1cc2oc(-c3ccccc3)cc(=O)c2c(O)c1C
36.3 nM	O=c1cc(-c2ccccc2)oc2c(Cc3ccccc3)c(O)c(Cc3ccccc3)c(O)c12
67.6 nM	O=c1cc(-c2ccccc2)oc2cc(OCc3ccccc3)cc(O)c12
219 nM	CC(C)=Cc1c(O)cc(O)c2c(=O)c(O)c(-c3ccccc3)oc12
1000 nM	CC(C)Oc1cc(O)c2c(=O)cc(-c3ccccc3)oc2c1

Structure (SMILES)	Kd
O=c1c(O)c(-c2ccc(O)cc2)oc2cc(O)cc(O)c12 [KAEMPFEROL]	6760 nM
O=c1cc(-c2ccc(O)cc2)oc2cc(O)cc(O)c12 [APIGENIN]	10000 nM

Source: ChEMBL document CHEMBL1821584, “Docking and 3D-QSAR (quantitative structure activity relationship) studies of flavones, the potent inhibitors of p-glycoprotein targeting the nucleotide binding domain” (Eur J Med Chem, 2011)
